Results on 36 compounds are retold here after US11414431B2, “Substituted pyrazolo[1,5-a]pyrimidines as TYK2 inhibitors” (Nimbus Lakshmi, Inc., priority 2018, dated 2022).

SMILES strings stand for the structures.

For assay [1], the system named is IL-12 induced STAT4 phosphorlyation mediated by TYK2/JAK2. Put plainly: IL-12 Induced pSTAT4 in Human PBMC. Type of assay: cell-based. Particulars: 1.7 ng/mL IL-12 for 30 minutes. The gist of the method: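 pSTAT4 and total STAT4 quantified by MSD in lysates of cryopreserved human PBMC after 30-minute stimulation with 1.7 ng/mL IL-12 (final). Compound was added 1 hr beforehand at 37° C, 0.1% DMSO final.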

Assay [2] deals with human TYK2 (JH2domain-pseudokinase) (Homo sapiens (Human), UniProt P29597). Put plainly: TYK2 JH2 Domain Binding Assay (KINOMEscan). Particulars: 11-point 3-fold dilution, top concentration 30,000 nM, duplicate; read-out: hTYK2_JH2_Binding (Kd; nM). The gist of the method:
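KINOMEscan competition binding: HEK293-expressed NFkB-fused TYK2 JH2 (G556–D888), DNA-tagged, against immobilized ligand beads, 1 h shaking at room temperature, 0.9% DMSO. Bound kinase quantified by qPCR.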

Chain of human TYK2 (JH2domain-pseudokinase) (P29597 556-888): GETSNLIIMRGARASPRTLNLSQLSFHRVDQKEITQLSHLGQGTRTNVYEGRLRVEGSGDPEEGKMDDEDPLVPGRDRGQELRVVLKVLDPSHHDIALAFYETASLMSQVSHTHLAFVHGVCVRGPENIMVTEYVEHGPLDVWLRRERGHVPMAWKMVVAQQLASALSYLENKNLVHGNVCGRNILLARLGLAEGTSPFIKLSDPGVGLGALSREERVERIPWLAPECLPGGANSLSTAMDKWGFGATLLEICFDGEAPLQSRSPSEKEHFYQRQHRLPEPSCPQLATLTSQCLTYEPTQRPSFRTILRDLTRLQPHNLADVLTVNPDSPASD

The IC50 is the concentration at which inhibition is half-maximal. A lower IC50 goes with higher potency. What is called Kd is a measure of binding affinity in units of concentration. `CNc1cc(-c2cnc3n(C4CCOCC4)cccc2-3)nc2c(C(=O)NC3CC[C@@H]3OC)cnn12` (stereo in doubt) [Compound I-985, N-(2-methoxycyclobutyl)-7-(methylamino)-5-(7-(tetrahydro-2H-pyran-4-yl)-7H-pyrrolo[2,3-b]pyridin-3-yl)pyrazolo[1,5-a]pyrimidine-3-carboxamide] showed an IC50 in assay [1] (0.5 h) of under 0.1 µM. In addition, in assay [2], the equilibrium dissociation constant (Kd) was under 0.2 nM. As for `CNc1cc(Nc2cccn([C@@H]3CCC[C@](C)(O)C3)c2=O)nc2c(C(=O)NC3CC3)cnn12` [Compound I-3, N-cyclopropyl-5-((1-((1R,3S)-3-hydroxy-3-methylcyclohexyl)-2-oxo-1,2-dihydropyridin-3-yl)amino)-7-(methylamino)pyrazolo[1,5-a]pyrimidine-3-carboxamide], in assay [1] (0.5 h), the IC50 was under 0.1 µM. Further, the Kd in assay [2] is under 0.2 nM.

For the compound `CNc1cc(Nc2cccn([C@H]3C[C@H](OC)C3)c2=O)nc2c(C(=O)NC3CC3)cnn12` [Compound I-4, N-Cyclopropyl-5-((1-((1r,3r)-3-methoxycyclobutyl)-2-oxo-1,2-dihydropyridin-3-yl)amino)-7-(methylamino)pyrazolo[1,5-a]pyrimidine-3-carboxamide], in assay [1] (0.5 h), the concentration for half-maximal inhibition (IC50) was under 0.1 µM. In addition, the dissociation constant (Kd) in assay [2] was under 0.2 nM.

In turn, `CNc1cc(Nc2cccn([C@H]3C[C@H](OC)C3)c2=O)nc2c(C(=O)N[C@@H]3C[C@@H]3F)cnn12` [Compound I-8, N-((1R,2S)-2-Fluorocyclopropyl)-5-((1-((1r,3R)-3-methoxycyclobutyl)-2-oxo-1,2-dihydropyridin-3-yl)amino)-7-(methylamino)pyrazolo[5-a]pyrimidine-3-carboxamide] showed an IC50 in assay [1] (0.5 h) of under 0.1 µM. Besides, in assay [2], the Kd was under 0.2 nM. `CNc1cc(-c2cn([C@H]3CCCOC3)c3ncccc23)nc2c(C(=O)N[C@@H]3CC[C@@H]3O)cnn12` [Compound I-14, N-((1R,2S)-2-Hydroxycyclobutyl)-7-(methylamino)-5-(1-((S)-tetrahydro-2H-pyran-3-yl)-1H-pyrrolo[2,3-b]pyridin-3-yl)pyrazolo[1,5-a]pyrimidine-3-carboxamide] had an IC50 in assay [1] (0.5 h) of under 0.1 µM. The equilibrium dissociation constant (Kd) in assay [2] is under 0.2 nM.

Take `CNc1cc(Nc2cccn([C@H]3CC[C@H](OC)CC3)c2=O)nc2c(C(=O)N[C@@H]3C[C@H]3OC)cnn12` [Compound I-31, 5-((1-((1r,4R)-4-Methoxycyclohexyl)-2-oxo-1,2-dihydropyridin-3-yl)amino)-N-((1R,2R)-2-methoxycyclopropyl)-7-(methylamino)pyrazolo[1,5-a]pyrimidine-3-carboxamide]: the IC50 in assay [1] was under 0.1 µM. The Kd in assay [2] is under 0.2 nM. `CNc1cc(Nc2cccn([C@H]3CC[C@H](OC)CC3)c2=O)nc2c(C(=O)N[C@H]3C[C@@H]3OC)cnn12` [Compound I-32, 5-((1-((1r,4S)-4-Methoxycyclohexyl)-2-oxo-1,2-dihydropyridin-3-yl)amino)-N-((1S,2S)-2-methoxycyclopropyl)-7-(methylamino)pyrazolo[1,5-a]pyrimidine-3-carboxamide]: in assay [1], the IC50 was under 0.1 µM. Besides, in assay [2], the dissociation constant (Kd) was under 0.2 nM.

In assay [1] (0.5 h), `CNc1cc(Nc2cccn(C3CC(F)(F)C3)c2=O)nc2c(C(=O)N[C@H]3CC[C@H](O)C3)cnn12` [Compound I-41, 5-((1-(3,3-Difluorocyclobutyl)-2-oxo-1,2-dihydropyridin-3-yl)amino)-N-((1S,3S)-3-hydroxycyclopentyl)-7-(methylamino)pyrazolo[1,5-a]pyrimidine-3-carboxamide] had an IC50 of under 0.1 µM. For the same compound, in assay [2], the Kd was in the range of 0.2 to 1 nM.

Regarding `CNc1cc(Nc2cccn([C@H]3C[C@@H]3F)c2=O)nc2c(C(=O)N[C@H]3CC[C@@H]3OC)cnn12` [Compound I-49, 5-((1-((1S,2S)-2-Fluorocyclopropyl)-2-oxo-1,2-dihydropyridin-3-yl)amino)-N-((1S,2S)-2-methoxycyclobutyl)-7-(methylamino)pyrazolo[1,5-a]pyrimidine-3-carboxamide], in assay [1] (0.5 h), the IC50 was under 0.1 µM. Moreover, the Kd in assay [2] is under 0.2 nM. Take `CNc1cc(Nc2cccn([C@@H]3C[C@H]3F)c2=O)nc2c(C(=O)N[C@@H]3CC[C@H]3OC)cnn12` [Compound I-53, 5-((1-((1R,2R)-2-Fluorocyclopropyl)-2-oxo-1,2-dihydropyridin-3-γ1)amino)-N-((1R,2R)-2-methoxycyclobutyl)-7-(methylamino)pyrazolo[1,5-a]pyrimidine-3-carboxamide]: in assay [1], the half-maximal inhibitory concentration (IC50) is under 0.1 µM. In assay [2], the equilibrium dissociation constant (Kd) was under 0.2 nM. Consider `CNc1cc(Nc2cccn(-c3ccccn3)c2=O)nc2c(C(N)=O)cnn12` [Compound I-119], for which the 50% inhibitory concentration (IC50) in assay [1] was in the range of 0.1 to 0.5 µM. The Kd in assay [2] is under 0.2 nM. In the case of `CNc1cc(-c2cn([C@H]3COC[C@@H]3O)c3ncccc23)nc2c(C(=O)N[C@@H]3C[C@@H]3F)cnn12` [Compound I-501], the Kd in assay [2] was under 0.2 nM. As for `CNc1cc(-c2cn([C@@H]3COC[C@H]3OC)c3ncccc23)nc2c(C(=O)N[C@@H]3C[C@@H]3F)cnn12` [Compound I-503], the dissociation constant Kd in assay [2] was under 0.2 nM. On the same count and under the same terms, as for `CNc1cc(-c2cn([C@H]3COC[C@@H]3OC)c3ncccc23)nc2c(C(=O)N[C@@H]3C[C@@H]3F)cnn12` [Compound I-504], the figure is under 0.2 nM. With `CNc1cc(-c2cn([C@@H]3CCOC[C@H]3O)c3ncccc23)nc2c(C(=O)N[C@@H]3C[C@@H]3F)cnn12` [Compound I-505], the dissociation constant Kd in assay [2] was under 0.2 nM. As for `CNc1cc(-c2cn([C@H]3CCOC[C@@H]3O)c3ncccc23)nc2c(C(=O)N[C@@H]3C[C@@H]3F)cnn12` [Compound I-506], the equilibrium dissociation constant (Kd) in assay [2] was under 0.2 nM. Turning to `CNc1cc(-c2cn(C3COC3)c3ncccc23)nc2c(C(=O)N[C@@H]3CC[C@H]3F)cnn12` [Compound I-509], the Kd in assay [2] is under 0.2 nM. For `CNc1cc(-c2cn(C3CN(C)C3)c3ncccc23)nc2c(C(=O)NC3COC[C@H]3O)cnn12` (some centres unmarked) [Compound I-714], the Kd in assay [2] was over 10 nM.

As for `O=C(NC1CC1)c1cnn2c3c(c(Nc4cccn(C5CCOCC5)c4=O)nc12)OCCN3` [Compound I-748], the Kd in assay [2] was under 0.2 nM. As for `O=C(NC1CC1)c1cnn2c3c(c(Nc4cccc5ocnc45)nc12)OCCN3` [Compound I-749], the Kd in assay [2] is under 0.2 nM.

For `O=C(N[C@@H]1C[C@@H]1F)c1cnn2c3c(c(Nc4cccn(C5CCOCC5)c4=O)nc12)OCCN3` [Compound I-751, N-((1R,2S)-2-Fluorocyclopropyl)-5-((2-oxo-1-(tetrahydro-2H-pyran-4-yl)-1,2-dihydropyridin-3-yl)amino)-2,3-dihydro-1H-pyrazolo[5′,1′:2,3]pyrimido[5,4-b][1,4]oxazine-7-carboxamide], in assay [2], the Kd is under 0.2 nM. Regarding `CC(C)n1cc(-c2nc3c(C(=O)N[C@@H]4CC[C@@H]4O)cnn3c3c2OCCN3)c2cccnc21` [Compound I-755], the Kd in assay [2] is under 0.2 nM.

Regarding `O=C(N[C@@H]1CC[C@H]1F)c1cnn2c3c(c(-c4cn([C@H]5C[C@H](O)C5)c5ncccc45)nc12)OCCN3` [Compound I-758], the Kd in assay [2] was under 0.2 nM.

Consider `CO[C@@H]1CC[C@H]1NC(=O)c1cnn2c3c(c(Nc4cccn([C@H]5[C@@H]6COC[C@@H]65)c4=O)nc12)OCCN3` [Compound I-763], for which the Kd in assay [2] is over 10 nM. With `CO[C@H]1CC[C@@H]1NC(=O)c1cnn2c3c(c(Nc4cccn([C@H]5[C@@H]6COC[C@@H]65)c4=O)nc12)OCCN3` [Compound I-764], the equilibrium dissociation constant (Kd) in assay [2] was under 0.2 nM.

For the compound `CC(C)n1cccc(Nc2nc3c(C(=O)N[C@@H]4CCC4(F)F)cnn3c3c2OCCN3)c1=O` [Compound I-767], in assay [2], the equilibrium dissociation constant (Kd) was under 0.2 nM. In the case of `O=C(N[C@H]1CCC1(F)F)c1cnn2c3c(c(Nc4cccn([C@H]5[C@@H]6COC[C@@H]65)c4=O)nc12)OCCN3` [Compound I-770], the Kd in assay [2] was over 10 nM. Consider `O=C(N[C@H]1CCC1(F)F)c1cnn2c3c(c(-c4cn(C5COC5)c5ncccc45)nc12)OCCN3` [Compound I-773], for which the Kd in assay [2] is under 0.2 nM.

Take `CNc1cc(-c2cnc3n([C@@H]4COC[C@H]4OC)cccc2-3)nc2c(C(=O)N[C@@H]3C[C@@H]3F)cnn12` [Compound I-822]: the dissociation constant Kd in assay [2] was under 0.2 nM. As to `CNc1cc(-c2cnc3n([C@H]4COC[C@@H]4OC)cccc2-3)nc2c(C(=O)N[C@@H]3C[C@@H]3F)cnn12` [Compound I-823], the dissociation constant Kd in assay [2] is under 0.2 nM.

On to `CNc1cc(-c2ccc(N3CC[C@H](OC)C3)c3nccn23)nc2c(C(=O)NC3CC[C@H]3O)cnn12` (some centres unmarked) [Compound I-907], for which, in assay [2], the Kd is under 0.2 nM. As to `CNc1cc(-c2cn([C@H]3C[C@@H](COC)C3)c3ncccc23)nc2c(C(=O)N[C@@H]3CC[C@H]3OC)cnn12` [Compound I-934], in assay [2], the dissociation constant Kd was under 0.2 nM. On to `CNc1cc(-c2cnc3n(CC(=O)N(C)C)cccc2-3)nc2c(C(=O)NC3CC[C@@H]3OC)cnn12` (some centres unmarked) [Compound I-961], for which, in assay [2], the Kd is under 0.2 nM. `CNc1cc(-c2cnc3n(CC(=O)N4CC5(COC5)C4)cccc2-3)nc2c(C(=O)N[C@@H]3CC[C@H]3OC)cnn12` [Compound I-1013]: the Kd in assay [2] was under 0.2 nM. Regarding `CNc1cc(-c2cn([C@H]3CO[C@@H](COC)C3)c3ncccc23)nc2c(C(=O)N[C@@H]3CC[C@H]3OC)cnn12` [Compound I-1019, N-((1R,2R)-2-methoxycyclobutyl)-5-(1-(5-(methoxymethyl)tetrahydrofuran-3-yl)-1H-pyrrolo[2,3-b]pyridin-3-yl)-7-(methylamino)pyrazolo[1,5-a]pyrimidine-3-carboxamide], in assay [2], the dissociation constant (Kd) is 1 to 10 nM.

In the case of `CNc1cc(-c2cnc3n(C4CCN(CCOC)CC4)cccc2-3)nc2c(C(=O)N[C@@H]3CC[C@H]3OC)cnn12` [Compound I-1021, N-((1R,2R)-2-methoxycyclobutyl)-5-(7-(1-(2-methoxyethyl)piperidin-4-yl)-7H-pyrrolo[2,3-b]pyridin-3-yl)-7-(methylamino)pyrazolo[1,5-a]pyrimidine-3-carboxamide], the equilibrium dissociation constant (Kd) in assay [2] was in the range of 0.2 to 1 nM.
